PubChem BioAssay AID208 (DTP/NCI, 2004)
Several values for one entry are separate records, joined by “and”; a condition that tells them apart may be missing. Equal values may be shown once. Records with an inconclusive call do not appear.

Tested on: HT29 intrarenal xenograft, nude mice, tumor weight change
Test: NCI In Vivo Anticancer Drug Screen. Data for tumor model HT29;CX-1 Human Adenocarcinoma (MER+) (intrarenal inoculation) in NU/NU BALB/C (nude) mice
Conditions: endpoint: mean tumor weight change, higher = larger tumour
Protocol: The antitumor activity of compounds was measured in mice bearing transplantable tumors. Survival or tumor size were measured and the results are expressed as the measurement made in the treated group (T) divided by the measurement made in the vehicle treated control group (C). The tumor model used in this assay is HT29;CX-1 Human Adenocarcinoma (MER+) (intrarenal inoculation) in NU/NU BALB/C (nude) mice

[1] = dose: 300.0 mg/kg/injection, schedule: Q04DX004 (sc), vehicle: saline with Tween-80
[2] = dose: 150.0 mg/kg/injection, schedule: Q04DX004 (ip), vehicle: DMSO
[3] = dose: 300.0 mg/kg/injection, schedule: Q04DX004 (ip), vehicle: DMSO

**Q.** What does the source list for C[C@]12CCC(=O)C(O)=C1CC[C@@H]1[C@@H]2CC[C@]2(C)C(=O)CC[C@@H]12?
**A.** T/C (dose: 150.0 mg/kg/injection, schedule: Q04DX004 (ip), vehicle: Klucel (hydroxypropylcellulose) (HPC)): 84 % of control; T/C (dose: 300.0 mg/kg/injection, schedule: Q04DX004 (ip), vehicle: Klucel (hydroxypropylcellulose) (HPC)): 94 % of control; T/C (dose: 600.0 mg/kg/injection, schedule: Q04DX004 (ip), vehicle: Klucel (hydroxypropylcellulose) (HPC)): 67 % of control; T/C (dose: 1200.0 mg/kg/injection, schedule: Q04DX004 (ip), vehicle: Klucel (hydroxypropylcellulose) (HPC)): 84 % of control

**Q.** What does the source list for O=C(C/C(=N\C(=S)Nc1cc(C(F)(F)F)ccc1Cl)NO)N1CCCC1?
**A.** T/C (dose: 600.0 mg/kg/injection, schedule: Q04DX003 (sc), vehicle: saline with Tween-80): 114 % of control; T/C (dose: 1200.0 mg/kg/injection, schedule: Q04DX003 (sc), vehicle: saline with Tween-80): 88 % of control

**Q.** For CCNC=O, which T/C (dose: 150.0 mg/kg/injection, schedule: Q01DX010 (ip), vehicle: suspension in saline) is on record?
**A.** 82 % of control

**Q.** And the T/C (dose: 300.0 mg/kg/injection, schedule: Q01DX010 (ip), vehicle: suspension in saline)?
**A.** 42 % of control

**Q.** What about the T/C (dose: 600.0 mg/kg/injection, schedule: Q01DX010 (ip), vehicle: suspension in saline) of the same molecule?
**A.** 39 % of control

**Q.** With CCNC(C)(C)C(SSS)c1ccco1 (configuration not stated) as the molecule, how does the T/C (dose: 75.0 mg/kg/injection, schedule: Q04DX004 (sc), vehicle: saline with Tween-80) read?
**A.** 121 % of control

**Q.** What about the T/C (dose: 150.0 mg/kg/injection, schedule: Q04DX004 (sc), vehicle: saline with Tween-80) of the same molecule?
**A.** 119 % of control

**Q.** And the T/C [1]?
**A.** 91 % of control

**Q.** With O=C1CCC(=O)N1CO as the molecule, how does the T/C (dose: 150.0 mg/kg/injection, schedule: Q04DX004 (sc), vehicle: saline) read?
**A.** 66 % of control

**Q.** And the T/C (dose: 300.0 mg/kg/injection, schedule: Q04DX004 (sc), vehicle: saline)?
**A.** 80 % of control

**Q.** What about the T/C (dose: 600.0 mg/kg/injection, schedule: Q04DX004 (sc), vehicle: saline) of the same molecule?
**A.** 74 % of control

**Q.** CCCCNc1ccc2nnc(C)n2n1 was tested. Which T/C [2] did it give?
**A.** 116 % of control

**Q.** What about the T/C (dose: 150.0 mg/kg/injection, schedule: Q04DX004 (ip), vehicle: sodium bicarbonate) of the same molecule?
**A.** 86 % of control

**Q.** CCCCCCCC(=O)OCC(=O)[C@]1(O)Cc2c(O)c3c(c(O)c2[C@@H](OC2CC(N)C(O)C(C)O2)C1)C(=O)c1c(OC)cccc1C3=O (some centres not stated) was tested. Which T/C (dose: 2.0 mg/kg/injection, schedule: Q04DX004 (sc), vehicle: saline) did it give?
**A.** 63 % of control

**Q.** And the T/C (dose: 4.0 mg/kg/injection, schedule: Q04DX004 (sc), vehicle: saline)?
**A.** 78 % of control

**Q.** What about the T/C (dose: 8.0 mg/kg/injection, schedule: Q04DX004 (sc), vehicle: saline) of the same molecule?
**A.** 48 % of control

**Q.** What about the T/C (dose: 16.0 mg/kg/injection, schedule: Q04DX004 (sc), vehicle: saline) of the same molecule?
**A.** 30 % of control

**Q.** Which results are given for NC(CNC(=O)CBr)C(=O)O (configuration not stated)?
**A.** T/C (dose: 37.5 mg/kg/injection, schedule: Q04DX004 (sc), vehicle: water): 106 % of control; T/C (dose: 75.0 mg/kg/injection, schedule: Q04DX004 (sc), vehicle: water): 96 % of control; T/C (dose: 150.0 mg/kg/injection, schedule: Q04DX004 (sc), vehicle: water): 43 % of control

**Q.** How did the T/C [3] turn out when Nc1ccc(S(=O)(=O)Nc2cnc3c(Cl)cccc3n2)cc1 was run?
**A.** 85 % of control

**Q.** For Nc1nnc[se]1, which T/C (dose: 200.0 mg/kg/injection, schedule: Q04DX004 (sc), vehicle: saline with Tween-80) is on record?
**A.** 64 % of control

**Q.** And the T/C (dose: 400.0 mg/kg/injection, schedule: Q04DX004 (sc), vehicle: saline with Tween-80)?
**A.** 31 % of control

**Q.** And the T/C (dose: 800.0 mg/kg/injection, schedule: Q04DX004 (sc), vehicle: saline with Tween-80)?
**A.** 23 % of control

**Q.** With CN(C)N=Nc1cccc(C(N)=O)c1 as the molecule, how does the T/C (dose: 25.0 mg/kg/injection, schedule: Q04DX004 (sc), vehicle: Klucel (hydroxypropylcellulose) (HPC)) read?
**A.** 91 % of control

**Q.** And the T/C (dose: 50.0 mg/kg/injection, schedule: Q04DX004 (sc), vehicle: Klucel (hydroxypropylcellulose) (HPC))?
**A.** 85 % of control

**Q.** And the T/C (dose: 100.0 mg/kg/injection, schedule: Q04DX004 (sc), vehicle: Klucel (hydroxypropylcellulose) (HPC))?
**A.** 123 % of control

**Q.** Which T/C (dose: 10.0 mg/kg/injection, schedule: Q01DX010 (sc), vehicle: dextrose) does the source give for O=C(O)CC(=O)O.[NH-]C1CCCCC1[NH-].[Pt+2] (configuration not stated) here?
**A.** 64 % of control

**Q.** What about the T/C (dose: 20.0 mg/kg/injection, schedule: Q01DX010 (sc), vehicle: dextrose) of the same molecule?
**A.** 40 % of control

**Q.** And the T/C (dose: 40.0 mg/kg/injection, schedule: Q01DX010 (sc), vehicle: dextrose)?
**A.** 7 % of control

**Q.** Which results are given for O=C(Nc1cc(Cl)ccc1C(=O)O)c1cccc(C[n+]2ccccc2)c1?
**A.** T/C (dose: 150.0 mg/kg/injection, schedule: Q04DX004 (ip), vehicle: saline with Tween-80): 100 % of control; T/C (dose: 300.0 mg/kg/injection, schedule: Q04DX004 (ip), vehicle: saline with Tween-80): 123 % of control

**Q.** Which T/C [1] does the source give for Cn1ccc(=Nc2ccc(NC(=O)c3ccc(N=c4ccn(C)c5ccc([N+](=O)[O-])cc45)cc3[N+](=O)[O-])cc2)cc1 here?
**A.** 102 % of control

**Q.** What about the T/C (dose: 600.0 mg/kg/injection, schedule: Q04DX004 (sc), vehicle: saline with Tween-80) of the same molecule?
**A.** 104 % of control

**Q.** What about the T/C (dose: 1200.0 mg/kg/injection, schedule: Q04DX004 (sc), vehicle: saline with Tween-80) of the same molecule?
**A.** 164 % of control

**Q.** And the T/C (dose: 2400.0 mg/kg/injection, schedule: Q04DX004 (sc), vehicle: saline with Tween-80)?
**A.** 156 % of control

**Q.** Which T/C (dose: 25.0 micrograms/kg/injection, schedule: Q01DX010 (sc), vehicle: Klucel (hydroxypropylcellulose) (HPC)) does the source give for COc1cc2cc(c1Cl)N(C)C(=O)C[C@H](OC(=O)[C@H](C)N(C)C(C)=O)[C@]1(C)O[C@H]1[C@H](C)[C@@H]1C[C@@](O)(NC(=O)O1)[C@H](OC)C=C/C=C(\C)C2 here?
**A.** 315 % of control

**Q.** And the T/C (dose: 50.0 micrograms/kg/injection, schedule: Q01DX010 (sc), vehicle: Klucel (hydroxypropylcellulose) (HPC))?
**A.** 118 % of control and 310 % of control

**Q.** How did the T/C (dose: 0.5 mg/kg/injection, schedule: Q04DX004 (ip), vehicle: saline) turn out when CC(=O)c1cccc(NC2C(N)C(NC(=O)N(C)C)(C(C)O)C(C)(O)C2(O)COC(=O)c2c(C)cccc2O)c1 (configuration not stated) was run?
**A.** 124 % of control

**Q.** What about the T/C (dose: 1.0 mg/kg/injection, schedule: Q04DX004 (ip), vehicle: saline) of the same molecule?
**A.** 93 % of control

**Q.** And the T/C (dose: 2.0 mg/kg/injection, schedule: Q04DX004 (ip), vehicle: saline)?
**A.** 75 % of control

**Q.** And the T/C (dose: 4.0 mg/kg/injection, schedule: Q04DX004 (ip), vehicle: saline)?
**A.** 100 % of control

**Q.** How did the T/C (dose: 25.0 mg/kg/injection, schedule: Q04DX004 (sc), vehicle: saline) turn out when CNC(=O)ON(C(C)=O)C(=O)NC was run?
**A.** 114 % of control

**Q.** And the T/C (dose: 50.0 mg/kg/injection, schedule: Q04DX004 (sc), vehicle: saline)?
**A.** 80 % of control

**Q.** What about the T/C (dose: 100.0 mg/kg/injection, schedule: Q04DX004 (sc), vehicle: saline) of the same molecule?
**A.** 56 % of control

**Q.** O=C1OC(C(O)CO)C(O)=C1O (configuration not stated) was tested. Which T/C (dose: 400.0 mg/kg/injection, schedule: Q01DX010 (sc), vehicle: saline) did it give?
**A.** 113 % of control

**Q.** What about the T/C (dose: 800.0 mg/kg/injection, schedule: Q01DX010 (sc), vehicle: saline) of the same molecule?
**A.** 167 % of control

**Q.** How did the T/C (dose: 0.63 mg/kg/injection, schedule: Q01DX010 (sc), vehicle: dextrose) turn out when O=S(=O)(O)O.[NH-]C1CCCCC1[NH-].[Pt+2] (configuration not stated) was run?
**A.** 124 % of control

**Q.** What about the T/C (dose: 1.25 mg/kg/injection, schedule: Q01DX010 (sc), vehicle: dextrose) of the same molecule?
**A.** 83 % of control

**Q.** What about the T/C (dose: 2.5 mg/kg/injection, schedule: Q01DX010 (sc), vehicle: dextrose) of the same molecule?
**A.** 73 % of control

**Q.** For CO[C@@]12[C@H](COC(N)=O)C3=C(C(=O)C(C)=C(N)C3=O)N1C[C@@H]1N[C@@H]12, which T/C (dose: 1.5 mg/kg/injection, schedule: Q04DX004 (sc), vehicle: saline) is on record?
**A.** 47 % of control and 52 % of control and 71 % of control

**Q.** And the T/C (dose: 3.0 mg/kg/injection, schedule: Q04DX004 (sc), vehicle: saline)?
**A.** -35 % of control and -23 % of control and -13 % of control

**Q.** What about the T/C (dose: 6.0 mg/kg/injection, schedule: Q04DX004 (sc), vehicle: saline) of the same molecule?
**A.** -86 % of control

**Q.** Which T/C [2] does the source give for O=C(O)[C@H](Cc1ccccc1)N1C(=O)c2ccccc2C1=O here?
**A.** 180 % of control

**Q.** And the T/C [3]?
**A.** 97 % of control

**Q.** c1ccc2c(c1)nnn1c3cnccc3nc21 was tested. Which T/C (dose: 50.0 mg/kg/injection, schedule: Q01DX010 (sc), vehicle: saline with Tween-80) did it give?
**A.** 246 % of control

**Q.** What about the T/C (dose: 100.0 mg/kg/injection, schedule: Q01DX010 (sc), vehicle: saline with Tween-80) of the same molecule?
**A.** 65 % of control

**Q.** What does the source list for O=P(O)(NCCCl)NCCCl?
**A.** T/C (dose: 37.5 mg/kg/injection, schedule: Q04DX004 (sc), vehicle: saline): 54 % of control and 61 % of control; T/C (dose: 75.0 mg/kg/injection, schedule: Q04DX004 (sc), vehicle: saline): 71 % of control and 80 % of control

**Q.** With CO[C@H]1C[C@@H]2CC[C@@H](C)[C@@](O)(O2)C(=O)C(=O)N2CCCC[C@H]2C(=O)O[C@H]([C@H](C)C[C@@H]2CC[C@@H](O)[C@H](OC)C2)CC(=O)[C@H](C)C=C(C)[C@@H](O)[C@@H](OC)C(=O)[C@H](C)C[C@H](C)/C=C/C=C/C=C1C as the molecule, how does the T/C (dose: 200.0 mg/kg/injection, schedule: Q01DX010 (sc), vehicle: saline with Tween-80) read?
**A.** 84 % of control

**Q.** What about the T/C (dose: 400.0 mg/kg/injection, schedule: Q01DX010 (sc), vehicle: saline with Tween-80) of the same molecule?
**A.** 40 % of control

**Q.** What about the T/C (dose: 800.0 mg/kg/injection, schedule: Q01DX010 (sc), vehicle: saline with Tween-80) of the same molecule?
**A.** 59 % of control

**Q.** What about the T/C (dose: 1600.0 mg/kg/injection, schedule: Q01DX010 (sc), vehicle: saline with Tween-80) of the same molecule?
**A.** 25 % of control
